The numbers were not newly measured in patent US7939522B1, “Dosage formulations for acetylcholinesterase inhibitors” (priority 1999, dated 2011), which cites them from elsewhere.

For series [1] the following is noted: reported (Thomsen, 1990).
The test system of the next series is sleep. The following applies: humans, systemic administration late in the day or at night (Sitaram, 1979, Reimann, 1994).

For `COc1ccc2c3c1O[C@H]1C[C@@H](O)C=C[C@@]31CCN(C)C2` [galanthamine], the half life in series [1] was 4.5 to 8 h.
As for `CNC(=O)Oc1ccc2c(c1)[C@]1(C)CCN(C)[C@@H]1N2C` [physostigmine], the effect on sleep result with sleep was “disturb sleep and produce awakenings”.
